Test results reported in US6737383B1, “Herbicidal oxadiazolidines” (priority 1999, dated 2004).

Columns and labels:
winter barley = experiment: Test E winter barley; type: in vivo, Hordeum vulgare; settings: Preemergence
winter wheat [1] = experiment: Test E winter wheat; type: in vivo, Triticum aestivum; settings: Preemergence
Italian ryegrass = experiment: Test E Italian ryegrass; type: in vivo, Lolium multiflorum; settings: Preemergence
blackgrass = experiment: Test E blackgrass; type: in vivo, Alopecurus myosuroides; settings: Preemergence
purple nutsedge = experiment: Test B pre/postemergence purple nutsedge; type: in vivo, Cyperus rotundus
In short: (§1)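 Herbicidal effect was estimated by eye on a ten-point control scale after plants spent twelve to sixteen days in a greenhouse following soil or foliar treatment. Foliar sprays targeted plants at one to four leaves; all doses were formulated in a non-phytotoxic solvent with surfactant.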

wild oat = experiment: Test E wild oat; type: in vivo, Avena fatua; settings: Preemergence
duck salad = experiment: Test B flood test duck salad; type: in vivo, Heteranthera limosa
In short: (§2)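 Each value is a visual injury score relative to controls, with 10 meaning complete control and 0 no effect. Evaluation took place twelve to sixteen days after the 2-leaf-stage plants were treated and kept in the greenhouse.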

crabgrass = experiment: Test B pre/postemergence crabgrass; type: in vivo, Digitaria sanguinalis
In short: as §1

bamyardgrass = experiment: Test B flood test barnyardgrass; type: in vivo, Echinochloa crus-galli
In short: as §2

green foxtail = experiment: Test E green foxtail; type: in vivo, Setaria viridis; settings: Preemergence
winter wheat [2] = experiment: Test E winter wheat; type: in vivo, Triticum aestivum; settings: Postemergence
In short: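 For postemergence, plants at the 1- to 4-leaf stage, in a 60:40 mix of sandy loam and potting mix, treated with compound formulated in a surfactant-containing non-phytotoxic solvent. Visual assessment versus untreated controls followed roughly 21–28 days in the greenhouse.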

[3] = Rate 62 g/ha, 0 to 100 scale, 0 no effect, 100 complete control
[4] = Rate 125 g/ha, 0 to 100 scale (0 no effect, 100 complete control)
[5] = Postemergence, Rate 125 g/ha, scale of 0 to 10 where 0 is no effect and 10 is complete control
[6] = Postemergence, Rate 250 g/ha, scale 0 to 10, 0 no effect, 10 complete control
[7] = Preemergence, Rate 62 g/ha, scale 0 to 10 (0 no effect, 10 complete control)
[8] = Preemergence, Rate 125 g/ha, scale 0 to 10 (0 no effect, 10 complete control)
[9] = Preemergence, Rate 250 g/ha, scale of 0 to 10 where 0 is no effect and 10 is complete control
[10] = Preemergence, Rate 500 g/ha, scale 0 to 10 (0 no effect, 10 complete control)
[11] = Rate 62 g/ha, Postemergence, scale of 0 to 10 where 0 is no effect and 10 is complete control
[12] = Rate 500 g/ha, Postemergence, scale 0 to 10, 0 no effect, 10 complete control
[13] = Postemergence (flood test species), Rate 125 g/ha, scale of 0 to 10 where 0 is no effect and 10 is complete control
[14] = Rate 62 g/ha, Postemergence section, flood test species, scale of 0 to 10 where 0 is no effect and 10 is complete control
[15] = Rate 250 g/ha, headed Pre-emergence (flood test species), scale 0 to 10 (0 no effect, 10 complete control)
[16] = Rate 500 g/ha, headed Pre-emergence (flood test species), scale 0 to 10 (0 no effect, 10 complete control)
[17] = Rate 500 g/ha, listed under Postemergence (flood test species), scale 0 to 10, 0 no effect, 10 complete control
[18] = Rate 1000 g/ha, Pre-emergence (as headed), scale 0 to 10
[19] = flood test, listed under Postemergence, Rate 250 g/ha, scale 0 to 10, 0 no effect, 10 complete control
[20] = Rate 500 g/ha, 0 to 100 scale where 0 is no effect and 100 is complete control
[21] = Rate 1000 g/ha, 0 to 100 scale where 0 is no effect and 100 is complete control
[22] = Preemergence, Rate 62 g/ha, scale of 0 to 10 where 0 is no effect and 10 is complete control
[23] = Preemergence, Rate 125 g/ha, 0 is no effect, 10 is complete control
[24] = Preemergence, Rate 250 g/ha, scale 0 to 10, 0 is no effect, 10 is complete control
[25] = Rate 250 g/ha, Postemergence, scale 0 to 10, 0 is no effect, 10 is complete control
[26] = Rate 500 g/ha, Postemergence, scale 0 to 10
[27] = Rate 250 g/ha, Postemergence (flood test), scale 0 to 10, 0 is no effect, 10 is complete control
[28] = Rate 500 g/ha, listed under Postemergence (flood test species), scale 0 to 10

## CC(C)N(C(=O)n1oc(=O)n(C2CCCCC2)c1=O)c1ccc(Cl)cc1 [Compound 111]
Winter barley; [3]
  Plant response rating, Barley (winter): 0
Winter barley; [4]
  Plant response rating, Barley (winter): 0
Winter barley; Rate 250 g/ha, 0 to 100 scale
  Plant response rating, Barley (winter): 0
Winter wheat [1]; [3]
  Plant response rating, Wheat (winter): 0
Winter wheat [1]; [4]
  Plant response rating, Wheat (winter): 0
Winter wheat [1]; Rate 250 g/ha, 0 to 100 scale
  Plant response rating, Wheat (winter): 0
Italian ryegrass; [3]
  Plant response rating, I. Ryegrass: 0
Italian ryegrass; [4]
  Plant response rating, I. Ryegrass: 0
Italian ryegrass; Rate 250 g/ha, 0 to 100 scale
  Plant response rating, I. Ryegrass: 0
blackgrass; [3]
  Plant response rating, Blackgrass: 0
blackgrass; [4]
  Plant response rating, Blackgrass: 0
blackgrass; Rate 250 g/ha, 0 to 100 scale
  Plant response rating, Blackgrass: 0
Purple nutsedge; [5]
  Nutsedge plant response rating: 0
Purple nutsedge; [6]
  Nutsedge plant response rating: 0
Purple nutsedge; [7]
  Nutsedge plant response rating: 0
Purple nutsedge; [8]
  Plant response rating, Nutsedge: 0
Purple nutsedge; [9]
  Plant response rating, Nutsedge: 0
Purple nutsedge; [10]
  Nutsedge plant response rating: 0
Purple nutsedge; [11]
  Nutsedge plant response rating: 0
Purple nutsedge; [12]
  Nutsedge plant response rating: 0
Wild oat; [3]
  Plant response rating, Wild oat: 0
Wild oat; [4]
  Plant response rating, Wild oat: 0
Duck salad; [13]
  Ducksalad plant response rating: 0
Duck salad; [14]
  Ducksalad plant response rating: 0
Duck salad; [15]
  Ducksalad plant response rating: 0
Duck salad; [16]
  Plant response rating, Ducksalad: 0
Duck salad; [17]
  Ducksalad plant response rating: 0
Duck salad; [18]
  Ducksalad plant response rating: 0
Duck salad; Rate 2000 g/ha, Pre-emergence (as headed), scale 0 to 10
  Ducksalad plant response rating: 0
Duck salad; [19]
  Ducksalad plant response rating: 0
crabgrass; [5]
  Crabgrass plant response rating: 2
crabgrass; [6]
  Crabgrass plant response rating: 3
crabgrass; [7]
  Crabgrass plant response rating: 6
crabgrass; [8]
  Plant response rating, Crabgrass: 7
crabgrass; [9]
  Plant response rating, Crabgrass: 9
crabgrass; [10]
  Crabgrass plant response rating: 9
crabgrass; [11]
  Crabgrass plant response rating: 1
crabgrass; [12]
  Crabgrass plant response rating: 9
bamyardgrass; Postemergence, Rate 62 g/ha, scale 0 to 10, 0 is no effect, 10 is complete control
  Barnyardgrass plant response rating: 0
bamyardgrass; Rate 125 g/ha, Postemergence section (flood test species), scale 0 to 10, 0 no effect, 10 complete control
  Barnyardgrass plant response rating: 0
bamyardgrass; [15]
  Barnyardgrass plant response rating: 0
bamyardgrass; [16]
  Plant response rating, Barnyardgrass: 0
bamyardgrass; [17]
  Barnyardgrass plant response rating: 0
bamyardgrass; [18]
  Barnyardgrass plant response rating: 0
bamyardgrass; Rate 2000 g/ha, Pre-emergence (as headed), scale 0 to 10, 0 no effect, 10 complete control
  Barnyardgrass plant response rating: 9
bamyardgrass; [19]
  Barnyardgrass plant response rating: 0
Green foxtail; [3]
  Plant response rating, Green foxtail: 0
Green foxtail; [4]
  Plant response rating, Green foxtail: 0
Green foxtail; Rate 250 g/ha, 0 to 100 scale
  Plant response rating, Green foxtail: 10
Winter wheat [2]; Rate 62 g/ha, 0 to 100 scale
  Plant response rating, Wheat (winter): 0
Winter wheat [2]; Rate 125 g/ha, 0 to 100 scale
  Plant response rating, Wheat (winter): 0
Winter wheat [2]; Rate 250 g/ha, 0 to 100 scale (0 no effect, 100 complete control)
  Plant response rating, Wheat (winter): 0

## CC(C)Cn1c(=O)on(C(=O)N(c2ccc(F)cc2)C(C)C)c1=O [Compound 169]
Winter barley; Rate 250 g/ha
  Barley (winter) plant response rating (0 to 100 scale): 30
Winter barley; [20]
  Plant response rating, Barley (winter): 30
Winter barley; [21]
  Plant response rating, Barley (winter): 50
Winter wheat [1]; Rate 250 g/ha
  Wheat (winter) plant response rating (0 to 100 scale): 10
Winter wheat [1]; [20]
  Plant response rating, Wheat (winter): 40
Winter wheat [1]; [21]
  Plant response rating, Wheat (winter): 65
Italian ryegrass; Rate 250 g/ha
  I. Ryegrass plant response rating (0 to 100 scale): 75
Italian ryegrass; [20]
  Plant response rating, I. Ryegrass: 80
Italian ryegrass; [21]
  Plant response rating, I. Ryegrass: 90
blackgrass; Rate 250 g/ha
  Blackgrass plant response rating (0 to 100 scale): 30
blackgrass; [20]
  Plant response rating, Blackgrass: 60
blackgrass; [21]
  Plant response rating, Blackgrass: 55
Purple nutsedge; [5]
  Nutsedge plant response rating: 0
Purple nutsedge; [22]
  Nutsedge plant response rating: 0
Purple nutsedge; [23]
  Nutsedge plant response rating (0 to 10 scale): 0
Purple nutsedge; [24]
  Nutsedge plant response rating: 0
Purple nutsedge; [10]
  Nutsedge plant response rating: 3
Purple nutsedge; [11]
  Nutsedge plant response rating: 0
Purple nutsedge; [25]
  Plant response rating, Nutsedge: 0
Purple nutsedge; [26]
  Nutsedge plant response rating: 0
Wild oat; Rate 250 g/ha
  Wild oat plant response rating (0 to 100 scale): 50
Wild oat; [20]
  Plant response rating, Wild oat: 30
Wild oat; [21]
  Plant response rating, Wild oat: 40
Duck salad; [13]
  Ducksalad plant response rating: 0
Duck salad; [14]
  Ducksalad plant response rating: 0
Duck salad; [27]
  Plant response rating, Ducksalad: 0
Duck salad; [28]
  Ducksalad plant response rating: 0
crabgrass; [5]
  Crabgrass plant response rating: 8
crabgrass; [22]
  Crabgrass plant response rating: 8
crabgrass; [23]
  Crabgrass plant response rating (0 to 10 scale): 8
crabgrass; [24]
  Crabgrass plant response rating: 10
crabgrass; [10]
  Crabgrass plant response rating: 10
crabgrass; [11]
  Crabgrass plant response rating: 2
crabgrass; [25]
  Plant response rating, Crabgrass: 9
crabgrass; [26]
  Crabgrass plant response rating: 9
bamyardgrass; [13]
  Barnyardgrass plant response rating: 0
bamyardgrass; [14]
  Barnyardgrass plant response rating: 0
bamyardgrass; [27]
  Plant response rating, Barnyardgrass: 0
bamyardgrass; [28]
  Barnyardgrass plant response rating: 0
Green foxtail; Rate 250 g/ha
  Green foxtail plant response rating (0 to 100 scale): 60
Green foxtail; [20]
  Plant response rating, Green foxtail: 70
Green foxtail; [21]
  Plant response rating, Green foxtail: 95
Winter wheat [2]; Rate 1000 g/ha, 0 to 100 scale, 0 is no effect and 100 is complete control
  Plant response rating, Wheat (winter): 65
Winter wheat [2]; Rate 250 g/ha, 0 to 100 scale where 0 is no effect and 100 is complete control
  Wheat (winter) plant response rating: 40
Winter wheat [2]; Rate 500 g/ha, 0 to 100 scale, 0 is no effect, 100 is complete control
  Plant response rating, Wheat (winter): 50
